# Where two headings read alike, the source gives them in different places. Marks after values point to notes of the source that are not given here.
# Assays:
# V22 6056 Acinetobacter = assay: MIC assay, CAMHB with alginate oligomer, no visible growth; type: cell-based, Acinetobacter lwoffii; conditions: Table 5, V22 MDR Acin. lwoff
# [1] = tested on: Pseudomonas aeruginosa (MDR 301, PSA, V2); assay: MIC-assay, Mueller-Hinton broth with G-block alginate, 384-well, OD600; conditions: Table 8, V2
# [2] = tested on: Pseudomonas aeruginosa (R22, PSA, V1); assay: as above
# [3] = tested on: V12 5725 (Wales) Klebsiella pneumoniae; assay: MIC assay, CAMHB with alginate oligomer, no visible growth; type: cell-based; conditions: Table 5, V12 MDR Kleb pneu
# [4] = tested on: strains of Klebsiella pneumoniae displaying MDR phenotypes; assay: MIC-assay, Mueller-Hinton broth with G-block alginate, 384-well, OD600 (Table 10); type: cell-based
# Source text: Minimum inhibitory concentration (MICs) of different antibiotics for strains of Klebsiella pneumoniae displaying MDR phenotypes in the presence of varying concentrations of OligoCF-5/20 (0-10%). (MIC values are expressed in μg ml^−1).
# [5] = tested on: Acinetobacter lwoffii (Egypt, V10); assay: MIC-assay, Mueller-Hinton broth with G-block alginate, 384-well, OD600
# V11 5702 (Wales) E. coli = assay: MIC assay, CAMHB with alginate oligomer, no visible growth; type: cell-based; conditions: Table 5, V11 MDR E.coli
# [6] = tested on: Acinetobacter baumannii MDR ACB from Libya (V4); assay: as above; type: cell-based; conditions: Acinetobacter baumannii, Table 4, V4 MDR (Libya), read-out: MIC
# Source text: (§1) The study described in Example 1 was repeated with the following strains of bacteria and antibiotics as detailed in Tables 4, 5 and 6.
# The study described in Example 1 was repeated with the following strains of Acinetobacter baumannii, antibiotics and M-block alginate oligomer in place of OligoG CF-5/20 as detailed in Table 7. The M-block oligomer is 100% M with a DPn of 15 to 18,
# [7] = tested on: Burkholderia cepacia (LMG18941, ATCC-BAA-246); assay: MIC-assay, Mueller-Hinton broth with G-block alginate, 384-well, OD600
# [8] = tested on: Pseudomonas aeruginosa MDR R22 from China (V1); assay: MIC assay, CAMHB with alginate oligomer, no visible growth; type: cell-based; conditions: Pseudomonas aeruginosa, Table 4, V1 MDR (China), read-out: MIC
# Source text: as §1
# [9] = tested on: Staphylococcus aureus (MRSA) U50; assay: MIC-assay, Mueller-Hinton broth with G-block alginate, 384-well, OD600 (Table 12); type: cell-based; conditions: MRSA 1040s, U50 MDR
# Source text: (§2) Minimum inhibitory concentration (MICs) of different antibiotics for strains of Streptococcus oralis and Staphylococcus aureus (MRSA) displaying MDR phenotypes in the presence of varying concentrations of OligoCF-5/20 (0-10%). (MIC values are expressed in μg ml^−1).
# Streptococcus oralis = assay: as above; type: cell-based; conditions: Streptococcus oralis (5610, V17) MDR
# Source text: as §2
# MDR Providencia stuartii = assay: MIC-assay, Mueller-Hinton broth with G-block alginate, 384-well, OD600 (Table 11); type: cell-based; conditions: Providencia stuartii (IR57 India, V7) MDR
# Source text: (§3) Minimum inhibitory concentration (MICs) of different antibiotics for strains of E. coli and Providencia stuartii displaying MDR phenotypes in the presence of varying concentrations of OligoCF-5/20 (0-10%). (MIC values are expressed in μg ml^−1).
# [10] = tested on: Acinetobacter baumannii (MDR ACB, Libya, V4); assay: MIC-assay, Mueller-Hinton broth with G-block alginate, 384-well, OD600
# [11] = tested on: strains of E. coli displaying MDR phenotypes; assay: MIC-assay, Mueller-Hinton broth with G-block alginate, 384-well, OD600 (Table 11); type: cell-based; conditions: Escherichia coli, Escherichia coli (5702, Wales, V11) MDR, read-out: MIC
# Source text: as §3
# [12] = Acinetobacter, OligoCF-5/20 0G, read-out: MIC
# [13] = Pseudomonas aeruginosa, G-block (OligoCF-5/20) 0%
# [14] = Pseudomonas aeruginosa, G-block (OligoCF-5/20) 2%
# [15] = Table 8, G-block (OligoCF-5/20) 0%
# [16] = Klebsiella pneumoniae, OligoCF-5/20 0G, read-out: MIC
# [17] = Table 9, G-block (OligoCF-5/20) 0%
# [18] = Table 9, G-block (OligoCF-5/20) 2%
# [19] = Table 9, G-block (OligoCF-5/20) 6%
# [20] = Table 9, G-block (OligoCF-5/20) 10%
# [21] = Escherichia coli, OligoCF-5/20 0G, read-out: MIC
# [22] = ATCCBAA246|LMG18941, Table 8, G-block (OligoCF-5/20) 6%
# [23] = ATCCBAA246|LMG18941, Table 8, G-block (OligoCF-5/20) 10%
# [24] = G-block (OligoCF-5/20) 0%, read-out: MIC
# [25] = G-block (OligoCF-5/20) 2%, read-out: MIC
# [26] = G-block (OligoCF-5/20) 6%, read-out: MIC
# [27] = G-block (OligoCF-5/20) 10%, read-out: MIC
compound,measurement,setting,value
CC[C@H]1OC(=O)[C@H](C)[C@@H](O[C@H]2C[C@@](C)(OC)[C@@H](O)[C@H](C)O2)[C@H](C)[C@@H](O[C@@H]2O[C@H](C)C[C@H](N(C)C)[C@H]2O)[C@](C)(O)C[C@@H](C)C(=O)[C@H](C)[C@@H](O)[C@]1(C)O [Erythromycin],MIC,V22 6056 Acinetobacter; [12],< 0.5 mg/L
same,MIC,V22 6056 Acinetobacter; OligoCF-5/20 +2% G,<0.5 mg/L
same,MIC,V22 6056 Acinetobacter; OligoCF-5/20 +6% G,<0.5 mg/L
same,MIC,V22 6056 Acinetobacter; OligoCF-5/20 +10% G,<0.5 mg/L
same,MIC,[1]; [13],> 512 mg/L
same,MIC,[1]; [14],> 512 mg/L
same,MIC,[1]; G-block (OligoCF-5/20) 10%,512 mg/L
same,MIC,[2]; [15],> 512 mg/L
same,MIC,[3]; [16],512 mg/L
same,MIC,[3]; OligoCF-5/20 +6% G,512 mg/L
same,MIC,[3]; OligoCF-5/20 +10% G,512 mg/L
same,MIC,"[4]; Klebsiella pneumoniae (K3, India, V8) MDR, G-block (OligoCF-5/20) 0%",128 mg/L
same,MIC,"[4]; Klebsiella pneumoniae (K3, India, V8) MDR, G-block (OligoCF-5/20) 2%",128 mg/L
same,MIC,"[4]; Klebsiella pneumoniae (K3, India, V8) MDR, G-block (OligoCF-5/20) 6%",128 mg/L
same,MIC,"[4]; Klebsiella pneumoniae (K3, India, V8) MDR, G-block (OligoCF-5/20) 10%",128 mg/L
same,MIC,[5]; [17],1 mg/L
same,MIC,[5]; [18],< 1 mg/L
same,MIC,[5]; [19],< 1 mg/L
same,MIC,[5]; [20],< 1 mg/L
same,MIC,V11 5702 (Wales) E. coli; [21],512 mg/L
same,MIC,[6]; OligoCF-5/20 0G,8 mg/L
same,MIC,[6]; OligoCF-5/20 +2% G,2 mg/L
same,MIC,[6]; OligoCF-5/20 +6% G,≤ 1 mg/L
same,MIC,[6]; OligoCF-5/20 +10% G,≤ 1 mg/L
same,MIC,[7]; [22],64 mg/L
same,MIC,[7]; [23],64 mg/L
same,MIC,[8]; OligoCF-5/20 0G,128 mg/L
same,MIC,[8]; OligoCF-5/20 +6% G,64 mg/L
same,MIC,[8]; OligoCF-5/20 +10% G,32 mg/L
same,MIC,[9]; [24],> 1020 mg/L
same,MIC,[9]; [25],> 1020 mg/L
same,MIC,[9]; G-block (OligoCF-5/20) 6%,1020 mg/L
same,MIC,[9]; G-block (OligoCF-5/20) 10%,512 mg/L
same,MIC,Streptococcus oralis; [24],2 mg/L
same,MIC,Streptococcus oralis; [25],16 mg/L
same,MIC,Streptococcus oralis; G-block (OligoCF-5/20) 6%,0.0312 mg/L
same,MIC,Streptococcus oralis; G-block (OligoCF-5/20) 10%,0.0625 mg/L
same,MIC,MDR Providencia stuartii; G-block (OligoCF-5/20) 0%,32 mg/L
same,MIC,MDR Providencia stuartii; G-block (OligoCF-5/20) 2%,16 mg/L
same,MIC,MDR Providencia stuartii; G-block (OligoCF-5/20) 6%,16 mg/L
same,MIC,MDR Providencia stuartii; G-block (OligoCF-5/20) 10%,16 mg/L
same,MIC,[10]; [17],32 mg/L
same,MIC,[10]; [18],8 mg/L
same,MIC,[10]; [19],4 mg/L
same,MIC,[10]; [20],2 mg/L
CN(C)[C@@H]1C(O)=C(C(N)=O)C(=O)[C@@]2(O)C(O)=C3C(=O)c4c(O)cccc4[C@@](C)(O)[C@H]3[C@H](O)[C@@H]12 [Oxytetracycline],MIC,V22 6056 Acinetobacter; [12],2 mg/L
same,MIC,V22 6056 Acinetobacter; OligoCF-5/20 +2% G,2 mg/L
same,MIC,V22 6056 Acinetobacter; OligoCF-5/20 +6% G,2 mg/L
same,MIC,V22 6056 Acinetobacter; OligoCF-5/20 +10% G,8^‡ μg/ml
same,MIC,[1]; [13],16 mg/L
same,MIC,[1]; [14],16 mg/L
same,MIC,"[1]; Pseudomonas aeruginosa, G-block (OligoCF-5/20) 6%",8 mg/L
same,MIC,"[1]; Pseudomonas aeruginosa, G-block (OligoCF-5/20) 10%",8 mg/L
same,MIC,[2]; [15],> 128 mg/L
same,MIC,"[2]; Table 8, G-block (OligoCF-5/20) 2%",> 128 mg/L
same,MIC,"[2]; Table 8, G-block (OligoCF-5/20) 6%",> 128 mg/L
same,MIC,"[2]; Table 8, G-block (OligoCF-5/20) 10%",> 128 mg/L
same,MIC,[3]; [16],1 mg/L
same,MIC,[3]; OligoCF-5/20 +2% G,1 mg/L
same,MIC,[3]; OligoCF-5/20 +6% G,1 mg/L
same,MIC,[3]; OligoCF-5/20 +10% G,1 mg/L
same,MIC,"[4]; Klebsiella pneumoniae (5712, Wales, V12) MDR, G-block (OligoCF-5/20) 0%, read-out: MIC",1 mg/L
same,MIC,"[4]; Klebsiella pneumoniae (5712, Wales, V12) MDR, G-block (OligoCF-5/20) 2%, read-out: MIC",1 mg/L
same,MIC,"[4]; Klebsiella pneumoniae (5712, Wales, V12) MDR, G-block (OligoCF-5/20) 6%, read-out: MIC",1 mg/L
same,MIC,"[4]; Klebsiella pneumoniae (5712, Wales, V12) MDR, G-block (OligoCF-5/20) 10%, read-out: MIC",1 mg/L
same,MIC,"[4]; Klebsiella pneumoniae (IR25, India, V6) MDR, G-block (OligoCF-5/20) 0%, read-out: MIC",2 mg/L
same,MIC,"[4]; Klebsiella pneumoniae (IR25, India, V6) MDR, G-block (OligoCF-5/20) 2%, read-out: MIC",2 mg/L
same,MIC,"[4]; Klebsiella pneumoniae (IR25, India, V6) MDR, G-block (OligoCF-5/20) 6%, read-out: MIC",2 mg/L
same,MIC,"[4]; Klebsiella pneumoniae (IR25, India, V6) MDR, G-block (OligoCF-5/20) 10%, read-out: MIC",2 mg/L
same,MIC,"[4]; Klebsiella pneumoniae (K3, India, V8) MDR, G-block (OligoCF-5/20) 0%, read-out: MIC",512 mg/L
same,MIC,"[4]; Klebsiella pneumoniae (K3, India, V8) MDR, G-block (OligoCF-5/20) 2%, read-out: MIC",512 mg/L
same,MIC,"[4]; Klebsiella pneumoniae (K3, India, V8) MDR, G-block (OligoCF-5/20) 6%, read-out: MIC",512 mg/L
same,MIC,"[4]; Klebsiella pneumoniae (K3, India, V8) MDR, G-block (OligoCF-5/20) 10%, read-out: MIC",1020 mg/L
same,MIC,[5]; [17],0.5 mg/L
same,MIC,[5]; [18],0.5 mg/L
same,MIC,[5]; [19],0.5 mg/L
same,MIC,[5]; [20],0.5 mg/L
same,MIC,V11 5702 (Wales) E. coli; [21],0.5 mg/L
same,MIC,V11 5702 (Wales) E. coli; OligoCF-5/20 +2% G,1^‡ μg/ml
same,MIC,V11 5702 (Wales) E. coli; OligoCF-5/20 +6% G,0.5 mg/L
same,MIC,V11 5702 (Wales) E. coli; OligoCF-5/20 +10% G,0.5 mg/L
same,MIC,"[7]; ATCCBAA246|LMG18941, Table 8, G-block (OligoCF-5/20) 0%",32 mg/L
same,MIC,"[7]; ATCCBAA246|LMG18941, Table 8, G-block (OligoCF-5/20) 2%",16 mg/L
same,MIC,[7]; [22],32 mg/L
same,MIC,[7]; [23],32 mg/L
same,MIC,[9]; [24],2 mg/L
same,MIC,[9]; [25],2 mg/L
same,MIC,[9]; [26],1 mg/L
same,MIC,[9]; [27],0.5 mg/L
same,MIC,Streptococcus oralis; [24],< 0.25 mg/L
same,MIC,Streptococcus oralis; [25],< 0.25 mg/L
same,MIC,Streptococcus oralis; [26],0.5 mg/L
same,MIC,Streptococcus oralis; [27],< 0.25 mg/L
same,MIC,MDR Providencia stuartii; G-block (OligoCF-5/20) 0%,128 mg/L
same,MIC,MDR Providencia stuartii; G-block (OligoCF-5/20) 2%,128 mg/L
same,MIC,MDR Providencia stuartii; G-block (OligoCF-5/20) 6%,128 mg/L
same,MIC,MDR Providencia stuartii; G-block (OligoCF-5/20) 10%,128 mg/L
same,MIC,[11]; G-block (OligoCF-5/20) 0%,0.5 mg/L
same,MIC,[11]; G-block (OligoCF-5/20) 2%,0.5 mg/L
same,MIC,[11]; G-block (OligoCF-5/20) 6%,0.5 mg/L
same,MIC,[11]; G-block (OligoCF-5/20) 10%,0.25 mg/L
same,MIC,[10]; [17],2 mg/L
same,MIC,[10]; [18],2 mg/L
same,MIC,[10]; [19],2 mg/L
same,MIC,[10]; [20],1 mg/L

# Reference: US9801901B2, “Alginate oligomers for use in overcoming multidrug resistance in bacteria” (priority 2009, dated 2017)
